According to patent publication US20040005537A1, “Method of identifying toxic agents using differential gene expression” (priority 2000, published 2004):

Key:
[1] = grouping used to generate the distinguishing gene profiles; cited from earlier work
rat heart tissue = assay: GENECALLING differential gene expression analysis after dosing of serotonin modulating agents; assay type: in vivo, Sprague Dawley rats
Method in brief: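 GENECALLING profiling of cDNA from total RNA, keeping gene fragments modulated beyond ±1.5-fold. Tissue collected 24 h after final dosing of serotonin modulating agents; control rats received sterile water or canola oil.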

Q: Which results are given for `CC(C)CC(N(C)C)C1(c2ccc(Cl)cc2)CCC1` (stereo not drawn) [sibutramine]?
A: classification as cardiotoxic or noncardiotoxic serotonin modulating agent [1]: noncardiotoxic; Effects on Transcription Level: Novel gene fragment, 524 bp, 86% SI to mouse F-box protein FBX6b [AF176526] (rat heart tissue; CARDIOTOX 1): +1.3 fold; Effects on Transcription Level: Novel gene fragment, 306 bp, 91% SI to mouse low density lipoprotein receptor related protein 4 [AB013874] (rat heart tissue; CARDIOTOX 2): −1.3 fold; Effects on Transcription Level: Novel gene fragment, 540 bp, 97% SI to mouse skeletal muscle alpha-actin [X03766] (rat heart tissue; CARDIOTOX 3): −1.1 fold; Effects on Transcription Level: Novel gene fragment, 80 bp (rat heart tissue; CARDIOTOX 4): −1.3 fold; Effects on Transcription Level: Novel gene fragment, 957 bp, 99% SI to kidney injury associated moleculer HW036 [V80591] (rat heart tissue; CARDIOTOX 5): −1.0 fold; Effects on Transcription Level: Novel gene fragment, 282 bp, 85% SI to human KIAA1515 protein [AB040948] (rat heart tissue; CARDIOTOX 6): −1.4 fold; Effects on Transcription Level: Novel gene fragment, 405 bp, 88% SI to human 2-oxoglutarate dehydrogenase [D10523] (rat heart tissue; CARDIOTOX 7): −1.4 fold; Effects on Transcription Level: UCP2 (rat heart tissue; CARDIOTOX 8, GenBank AB010743): −1.3 fold; Effects on Transcription Level: Plasma membrane Ca2 + ATPase-isoform 1 (rat heart tissue; CARDIOTOX 9, GenBank J03753): +1.2 fold; Effects on Transcription Level: Novel gene fragment, 242 bp, 97% SI to mouse HSP86 heat-shock protein [X16857] (rat heart tissue; CARDIOTOX 10): +1.4 fold; Effects on Transcription Level: Novel gene fragment, 280 bp, 65% SI to human TRF1-interacting, ankyrin-related ADP-ribose polymerase [AF082556] (rat heart tissue; CARDIOTOX 11): +1.2 fold; Effects on Transcription Level: Novel gene fragment, 348 bp, 88% SI to mouse Sec61 protein complex gamma subunit [U11027] (rat heart tissue; CARDIOTOX 12): +1.4 fold; Effects on Transcription Level: Novel gene fragment 553 bp, 93% SI to mouse Sid329 [AB024984] (rat heart tissue; CARDIOTOX 13): +1.1 fold; Effects on Transcription Level: Kruppel-like transcription factor (rat heart tissue; CARDIOTOX 14, GenBank AB020759): +1.1 fold; Effects on Transcription Level: Ribosomal protein L3 (rat heart tissue; CARDIOTOX 15, GenBank X62166): +1.3 fold; Effects on Transcription Level: Glucose-regulated protein (GRP) 75 (rat heart tissue; CARDIOTOX 16, GenBank S78556): +1.1 fold; Effects on Transcription Level: Immunoglobulin heavy chain binding protein (BiP) (rat heart tissue; CARDIOTOX 17, GenBank M14050): −1.1 fold; Effects on Transcription Level: Membrane-spannining proteoglycan NG2 (rat heart tissue; CARDIOTOX 18, GenBank X56541): −1.1 fold; Effects on Transcription Level: Novel gene fragment, 1294 bp, 96% SI to mouse Sui 1 (elF) homolog [AF129888] (rat heart tissue; CARDIOTOX 19): +1.1 fold; Effects on Transcription Level: Novel gene fragment, 723 bp, 85% SI to human translation initiation factor elF3 p40 subunit [U54559] (rat heart tissue; CARDIOTOX 20): −1.1 fold; Effects on Transcription Level: Novel gene fragment, 1324 bp, 76% SI to human flavoprotein subunit of complex II [D30648] (rat heart tissue; CARDIOTOX 21): +1.4 fold; Effects on Transcription Level: Novel gene fragment, 852 bp, 81% SI to human vacuolar proton-ATPase subunit M9.2 [Y15286] (rat heart tissue; CARDIOTOX 22): +1.2 fold; Effects on Transcription Level: Novel gene fragment, 178 bp, 91% SI to mouse myosin light chain-2 isoform MLC-2a [S70785] (rat heart tissue; CARDIOTOX 23): +1.4 fold; Effects on Transcription Level: Novel gene fragment, 167 bp, 90% SI to mouse Rab20 [X80332] (rat heart tissue; CARDIOTOX 24): +1.0 fold; Effects on Transcription Level: Novel gene fragment, 1070 bp, 80% SI to human muscle-specific protein [AF249873] (rat heart tissue; CARDIOTOX 25): +1.2 fold; Effects on Transcription Level: Novel gene fragment, 1143 bp, 82% SI to human sarcoma amplified sequence (SAS) [U01160] (rat heart tissue; CARDIOTOX 26): +1.3 fold; Effects on Transcription Level: Novel gene fragment, 74 bp,75% SI to human secreted protein [X30160] (from patent database)/[X97578] (from patent database)/potential cytokine) (rat heart tissue; CARDIOTOX 27): −1.3 fold; Effects on Transcription Level: Novel gene fragment, 408 bp, 90% SI to human CGI-07 protein [AF132941] (rat heart tissue; CARDIOTOX 28): −1.0 fold; Effects on Transcription Level: Novel gene fragment, 618 bp, 95% SI to rat progression related cDNA, ZNPE-120 3′ end partial sequence [patent database X90805] (rat heart tissue; CARDIOTOX 29): +1.0 fold; Effects on Transcription Level: Novel gene fragment, 717 bp (rat heart tissue; CARDIOTOX 30): +1.2 fold; Effects on Transcription Level: Novel gene fragment, 546 bp (rat heart tissue; CARDIOTOX 31): +1.3 fold; Effects on Transcription Level: Novel gene fragment, 920 bp, 91% SI to human HSPC061 [AF161546] (rat heart tissue; CARDIOTOX 32): +1.2 fold; Effects on Transcription Level: Novel gene fragment, 203 bp, 92% SI to rabbit sarcoplasmic reticulum glycoprotein [J04480] (rat heart tissue; CARDIOTOX 33): −1.2 fold; Effects on Transcription Level: Novel gene fragment, 178 bp, 68% SI to mouse IgG receptor (beta-Fc-gamma-RII)[M63159] (rat heart tissue; CARDIOTOX 34): +1.4 fold; Effects on Transcription Level: Ribosomal protein L6 (rat heart tissue; CARDIOTOX 35, GenBank X87107): +1.4 fold; Effects on Transcription Level: CAP2 protein (adenylyl cyclase-associated protein 2) (rat heart tissue; CARDIOTOX 36, GenBank U31935): +1.4 fold; Effects on Transcription Level: Alpha-platelet-derived growth factor receptor (rat heart tissue; CARDIOTOX 37, GenBank M63837): −1.1 fold; Effects on Transcription Level: Rab GD1 alpha protein (rat heart tissue; CARDIOTOX 38, GenBank X74402): −1.1 fold; Effects on Transcription Level: PKC-zeta-interacting protein (rat heart tissue; CARDIOTOX 39, GenBank Y08355): −1.2 fold; Effects on Transcription Level: ERK or MAP kinase (rat heart tissue; CARDIOTOX 40, GenBank X65198): +1.4 fold; Effects on Transcription Level: Peroxisomal multifunctional enzyme type II (rat heart tissue; CARDIOTOX 41, GenBank U37486): +1.3 fold; Effects on Transcription Level: HBP23 (heme-binding protein 23 kDa) (rat heart tissue; CARDIOTOX 42, GenBank D30035): +1.3 fold; Effects on Transcription Level: Caveolae-associated protein (rat heart tissue; CARDIOTOX 43, GenBank U90725): −1.0 fold; Effects on Transcription Level: Prenylated rab acceptor 1 (PRA1) (rat heart tissue; CARDIOTOX 44, GenBank AF025506): +1.4 fold; Effects on Transcription Level: Novel gene fragment, 337 bp, 88% SI to rabbit cardiac ryanodine receptor (RyR-2)[U50465] (rat heart tissue; CARDIOTOX 45): −1.3 fold; Effects on Transcription Level: Novel gene fragment, 81 bp, 85% SI to human titin [X90568] (rat heart tissue; CARDIOTOX 46): −1.3 fold; Effects on Transcription Level: Novel gene fragment, 428 bp, 86% SI to human titin [X90568] (rat heart tissue; CARDIOTOX 47): −1.1 fold; Effects on Transcription Level: Novel gene fragment, 374 bp, 88% SI to human titin [X90568] (rat heart tissue; CARDIOTOX 48): −1.2 fold; Effects on Transcription Level: Novel gene fragment, 428 bp, 85% SI to human titin [90568] (rat heart tissue; CARDIOTOX 49): −1.3 fold; Effects on Transcription Level: Novel gene fragment, 1216 bp, 93% SI to mouse mircotubule-associated protein (MAP) 1B protein [AF115776] (rat heart tissue; CARDIOTOX 50): −1.1 fold; Effects on Transcription Level: Novel gene fragment, 1115 bp, 83% SI to human KIAA0549 protein [AB011121] (rat heart tissue; CARDIOTOX 51): −1.4 fold; Effects on Transcription Level: Novel gene fragment, 153 bp (rat heart tissue; CARDIOTOX 52): −1.2 fold; Effects on Transcription Level: Novel gene fragment, 89 bp, 93% SI to human putative glialblastoma cell differentiation-related protein (GBDR1) [AF068195] (rat heart tissue; CARDIOTOX 53): +1.4 fold; Effects on Transcription Level: Rho-associated kinase beta (rat heart tissue; CARDIOTOX 54, GenBank U61266): −1.1 fold; Effects on Transcription Level: Adenylate kinase 3 (rat heart tissue; CARDIOTOX 55, GenBank D13062): +1.4 fold; Effects on Transcription Level: Amyloid beta-peptide binding protein (rat heart tissue; CARDIOTOX 56, GenBank AF049878): +1.3 fold; Effects on Transcription Level: Mitochondrial adenine nuleotide translocator (rat heart tissue; CARDIOTOX 57, GenBank D12771): +1.4 fold; Effects on Transcription Level: Novel gene fragment, 710 bp, 94% SI to mouse chromatin structural protein homolog Supt5 hp (Supt5 h)[U88539] (rat heart tissue; CARDIOTOX 58): +7.5 fold; Effects on Transcription Level: Novel gene fragment, 186 bp, 66% SI to human N-acetylglucosaminyltransferase 1 (GlcNAc-TI)[M55621] (rat heart tissue; CARDIOTOX 60): −1.9 fold; Effects on Transcription Level: Novel gene fragment, 238 bp, 95% SI to mouse MAP kinase-activated protein kinase 2 [X76850] (rat heart tissue; CARDIOTOX 61): −2.8 fold; Effects on Transcription Level: Novel gene fragment, 173 bp, 70% SI to G protein-coupled receptor kinase GRK4 [X97568] (rat heart tissue; CARDIOTOX 62): −5.3 fold; Effects on Transcription Level: Novel gene fragment, 133 bp, 77% SI to human apoptosis related protein hSARP3 [patent database: V19114] (rat heart tissue; CARDIOTOX 63): −2.0 fold; Effects on Transcription Level: Novel gene fragment, 477 bp, 98% SI to peroxisomal phytanoyl-CoA hydroxylase (PHYH) [AF121345] (rat heart tissue; CARDIOTOX 64): +7.0 fold; Effects on Transcription Level: Novel gene fragment, 413 bp, 95% SI to mouse dihydrolipoamide dehydrogenase (Dld) [U73445] (rat heart tissue; CARDIOTOX 65): +1.6 fold; Effects on Transcription Level: Novel gene fragment, 726 bp, 76% SI to human succinate dehydrogenase flavoprotein subunit (SDH) [L21936] (rat heart tissue; CARDIOTOX 66): −3.0 fold; Effects on Transcription Level: Novel gene fragment, 440 bp, 92% SI to mouse cytochrome c oxidase Vllc [X52940] (rat heart tissue; CARDIOTOX 67): +11.5 fold; Effects on Transcription Level: Novel gene fragment, 276 bp, 80% SI to human titin [X90568] (rat heart tissue; CARDIOTOX 68): −6.6 fold; Effects on Transcription Level: Novel gene fragment, 149 bp, 70% SI to human titin [X90568] (rat heart tissue; CARDIOTOX 69): −2.4 fold
